Measurements taken from patent US11254663B2 (BRISTOL-MYERS SQUIBB COMPANY, priority 2019, dated 2022).

Biological target: FXR (Homo sapiens (Human), UniProt Q96RI1)
Test: FXR EC50 (FXR agonist potency reported with each Example)
Assay type: cell-based

Sequence of FXR (Q96RI1 262-486): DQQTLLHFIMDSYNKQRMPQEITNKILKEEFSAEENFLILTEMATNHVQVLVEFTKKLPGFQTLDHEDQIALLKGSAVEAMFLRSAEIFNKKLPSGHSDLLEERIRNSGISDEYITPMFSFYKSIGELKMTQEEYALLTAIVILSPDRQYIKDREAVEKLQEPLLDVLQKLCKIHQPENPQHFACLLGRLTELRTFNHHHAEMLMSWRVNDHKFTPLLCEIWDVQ

| Structure (SMILES) | EC50 |
| --- | --- |
| O=C(C1CCC(F)(F)C1)N(CC12CCC(c3nnc(C4CC4)o3)(CC1)CC2)c1cccc(-c2nnc(C3CC3)o2)c1 (racemic) [Example 133, N-((4-(5-cyclopropyl-1,3,4-oxadiazol-2-yl)bicyclo[2.2.2]octan-1-yl)methyl)-N-(3-(5-cyclopropyl-1,3,4-oxadiazol-2-yl)phenyl)-3,3-difluorocyclopentane-1-carboxamide] | 293 nM |
| COc1ccc(C23CCC(CN(C(=O)C4CC(F)(F)C4)c4cccc(-c5nc(C6CC6)no5)c4)(CC2)CO3)cc1 [Example 129, N-(3-(3-Cyclopropyl-1,2,4-oxadiazol-5-yl)phenyl)-3,3-difluoro-N-((1-(4-methoxyphenyl)-2-oxabicyclo[2.2.2]octan-4-yl)methyl)cyclobutane-1-carboxamide] | 1140 nM |
| CC(N(C(=O)C12CC(F)(C1)C2)c1cccc(-c2nc(C3CC3)no2)c1)C12CCC(c3nc(C4CC4)no3)(CC1)CC2 (single isomer, unassigned) [Example 218, N-(1-(4-(3-cyclopropyl-1,2,4-oxadiazol-5-yl)bicyclo[2.2.2]octan-1-yl)ethyl)-N-(3-(3-cyclopropyl-1,2,4-oxadiazol-5-yl)phenyl)-3-fluorobicyclo[1.1.1]pentane-1-carboxamide] | 1120 nM |
| CC(F)(F)c1nc(C23CCC(CN(C(=O)C45CC(F)(C4)C5)c4cccc(-c5noc(C6(C)CC6)n5)c4)(CC2)CC3)no1 [Example 179, N-((4-(5-(1,1-difluoroethyl)-1,2,4-oxadiazol-3-yl)bicyclo[2.2.2]octan-1-yl)methyl)-3-fluoro-N-(3-(5-(1-methylcyclopropyl)-1,2,4-oxadiazol-3-yl)phenyl)bicyclo[1.1.1]pentane-1-carboxamide] | 58 nM |
| O=C(C1CC(O)(C(F)(F)F)C1)N(CC12CCC(c3nc(C4CC4)no3)(CC1)CC2)c1cccc(-c2cnc(C3CC3)o2)c1 [Example 21, (1S,3S)—N-((4-(3-cyclopropyl-1,2,4-oxadiazol-5-yl)bicyclo[2.2.2]octan-1-yl)methyl)-N-(3-(2-cyclopropyloxazol-5-yl)phenyl)-3-hydroxy-3-(trifluoromethyl)cyclobutane-1-carboxamide] | 80 nM |
| CC(C)(O)c1coc(-c2cccc(N(CC34CCC(c5nc(C6CC6)no5)(CC3)CC4)C(=O)C3CC(F)(F)C3)c2)n1 [Example 16, N-((4-(3-cyclopropyl-1,2,4-oxadiazol-5-yl)bicyclo[2.2.2]octan-1-yl)methyl)-3,3-difluoro-N-(3-(4-(2-hydroxypropan-2-yl)oxazol-2-yl)phenyl)cyclobutane-1-carboxamide] | 318 nM |
| CCOC(=O)c1nc(-c2cccc(N(CC34CCC(c5nc(C6CC6)no5)(CC3)CC4)C(=O)C34CC(F)(C3)C4)c2)cs1 [Example 29, Ethyl 4-(3-(N-((4-(3-cyclopropyl-1,2,4-oxadiazol-5-yl)bicyclo[2.2.2]octan-1-yl)methyl)-3-fluorobicyclo[1.1.1]pentane-1-carboxamido)phenyl)thiazole-2-carboxylate] | 1090 nM |
| O=C(N(CC12CCC(c3nc(CC4CC4)no3)(CC1)CC2)c1cccc(-c2nc(C3CC3)no2)c1)C12CC(F)(C1)C2 [Example 68, N-(3-(3-cyclopropyl-1,2,4-oxadiazol-5-yl)phenyl)-N-((4-(3-(cyclopropylmethyl)-1,2,4-oxadiazol-5-yl)bicyclo[2.2.2]octan-1-yl)methyl)-3-fluorobicyclo[1.1.1]pentane-1-carboxamide] | 110 nM |
| O=C(C1CC(C(F)F)C1)N(CC12CCC(c3nc(C4CC4)no3)(CC1)CC2)c1cccc(-c2cc(C3CC3)on2)c1 (stereo not drawn) [Example 58, N-((4-(3-cyclopropyl-1,2,4-oxadiazol-5-yl)bicyclo[2.2.2]octan-1-yl)methyl)-N-(3-(5-cyclopropylisoxazol-3-yl)phenyl)-3-(difluoromethyl)cyclobutane-1-carboxamide] | 39 nM |
| Cn1nc(C2CC2)cc1C12CCC(CN(C(=O)C34CC(F)(C3)C4)c3cccc(-c4nc(C5CC5)no4)c3)(CC1)CC2 [Example 126, N-(3-(3-cyclopropyl-1,2,4-oxadiazol-5-yl)phenyl)-N-((4-(3-cyclopropyl-1-methyl-1H-pyrazol-5-yl)bicyclo[2.2.2]octan-1-yl)methyl)-3-fluorobicyclo[1.1.1]pentane-1-carboxamide] | 87 nM |
| CC(C)(C)CNC(=O)N(CC12CCC(c3nc(C4CC4)no3)(CC1)CC2)c1cccc(-c2nc(C3CC3)no2)c1 [Example 92, 1-((4-(3-cyclopropyl-1,2,4-oxadiazol-5-yl)bicyclo[2.2.2]octan-1-yl)methyl)-1-(3-(3-cyclopropyl-1,2,4-oxadiazol-5-yl)phenyl)-3-neopentylurea] | 420 nM |
| CC1(NC(=O)N(CC23CCC(c4nc(C5CC5)no4)(CC2)CC3)c2cccc(-c3nc(C4CC4)no3)c2)CC1 [Example 94, 1-((4-(3-cyclopropyl-1,2,4-oxadiazol-5-yl)bicyclo[2.2.2]octan-1-yl)methyl)-1-(3-(3-cyclopropyl-1,2,4-oxadiazol-5-yl)phenyl)-3-(1-methylcyclopropyl)urea] | 265 nM |
| O=C(C1CCC(F)(F)C1)N(CC12CCC(c3nc(C4CC4)no3)(CC1)CC2)c1cccc(-c2nc(CC3CC3)no2)c1 (stereo not drawn) [Example 67, N-((4-(3-cyclopropyl-1,2,4-oxadiazol-5-yl)bicyclo[2.2.2]octan-1-yl)methyl)-N-(3-(3-(cyclopropylmethyl)-1,2,4-oxadiazol-5-yl)phenyl)-3,3-difluorocyclopentane-1-carboxamide] | 202 nM |
| O=C(N(CC12CCC(c3nc(C4CC4)no3)(CC1)CC2)c1cccc(-c2noc(C3(O)CC3)n2)c1)C12CC(F)(C1)C2 [Example 110, N-((4-(3-cyclopropyl-1,2,4-oxadiazol-5-yl)bicyclo[2.2.2]octan-1-yl)methyl)-3-fluoro-N-(3-(5-(1-hydroxycyclopropyl)-1,2,4-oxadiazol-3-yl)phenyl)bicyclo[1.1.1]pentane-1-carboxamide] | 88 nM |
| CC1(c2nc(C34CCC(CN(C(=O)C56CC(F)(C5)C6)c5cccc(-c6nnc(C7CC7)o6)c5)(CC3)CC4)no2)CC1 [Example 154, N-(3-(5-cyclopropyl-1,3,4-oxadiazol-2-yl)phenyl)-3-fluoro-N-((4-(5-(1-methylcyclopropyl)-1,2,4-oxadiazol-3-yl)bicyclo[2.2.2]octan-1-yl)methyl) bicyclo[1.1.1]pentane-1-carboxamide] | 27 nM |
| O=C(C1CC(F)(F)C1)N(CC12CCC(c3nc(C4CC4)co3)(CC1)CC2)c1cccc(-c2cnc(C3CC3)o2)c1 [Example 83, N-((4-(4-cyclopropyloxazol-2-yl)bicyclo[2.2.2]octan-1-yl)methyl)-N-(3-(2-cyclopropyloxazol-5-yl)phenyl)-3,3-difluorocyclobutane-1-carboxamide] | 590 nM |
| CC1(c2nc(C34CCC(CN(C(=O)C56CC(F)(C5)C6)c5cccc(-c6nnc(C7CC7)o6)c5)(CC3)CC4)no2)COC1 [Example 155, N-(3-(5-cyclopropyl-1,3,4-oxadiazol-2-yl)phenyl)-3-fluoro-N-((4-(5-(3-methyloxetan-3-yl)-1,2,4-oxadiazol-3-yl)bicyclo[2.2.2]octan-1-yl)methyl)bicyclo[1.1.1]pentane-1-carboxamide] | 72 nM |
| CC(C)(O)c1coc(-c2cccc(N(CC34CCC(c5nc(C6CC6)no5)(CC3)CC4)C(=O)C34CC(F)(C3)C4)c2)n1 [Example 15, N-((4-(3-cyclopropyl-1,2,4-oxadiazol-5-yl)bicyclo[2.2.2]octan-1-yl)methyl)-3-fluoro-N-(3-(4-(2-hydroxypropan-2-yl)oxazol-2-yl)phenyl)bicyclo[1.1.1]pentane-1-carboxamide] | 88 nM |
| O=C(N(CC12CCC(c3nc(C4CC4)no3)(CC1)CC2)c1cccc(-c2noc(C3CC(F)(F)C3)n2)c1)C12CC(F)(C1)C2 [Example 103, N-((4-(3-cyclopropyl-1,2,4-oxadiazol-5-yl)bicyclo[2.2.2]octan-1-yl)methyl)-N-(3-(5-(3,3-difluorocyclobutyl)-1,2,4-oxadiazol-3-yl)phenyl)-3-fluorobicyclo[1.1.1]pentane-1-carboxamide] | 227 nM |
| Cn1nc(-c2cccc(N(CC34CCC(c5nc(C6CC6)no5)(CC3)CC4)C(=O)C3CC(F)(F)C3)c2)cc1C1CC1 [Example 76, N-((4-(3-cyclopropyl-1,2,4-oxadiazol-5-yl)bicyclo[2.2.2]octan-1-yl)methyl)-N-(3-(5-cyclopropyl-1-methyl-1H-pyrazol-3-yl)phenyl)-3,3-difluorocyclobutane-1-carboxamide] | 610 nM |
| O=C(N(CC12CCC(c3nc(C4CCOCC4)no3)(CC1)CC2)c1cccc(-c2nc(C3CC3)no2)c1)C12CC(F)(C1)C2 [Example 90, N-(3-(3-cyclopropyl-1,2,4-oxadiazol-5-yl)phenyl)-3-fluoro-N-((4-(3-(tetrahydro-2H-pyran-4-yl)-1,2,4-oxadiazol-5-yl)bicyclo[2.2.2]octan-1-yl)methyl)bicyclo[1.1.1]pentane-1-carboxamide] | 121 nM |
| COC(C)(C)c1coc(-c2cccc(N(CC34CCC(c5nc(C6CC6)no5)(CC3)CC4)C(=O)C34CC(F)(C3)C4)c2)n1 [Example 79, N-((4-(3-cyclopropyl-1,2,4-oxadiazol-5-yl)bicyclo[2.2.2]octan-1-yl)methyl)-3-fluoro-N-(3-(4-(2-methoxypropan-2-yl)oxazol-2-yl)phenyl)bicyclo[1.1.1]pentane-1-carboxamide] | 194 nM |
| CCOc1ncc(-c2cccc(N(CC34CCC(c5nc(C6CC6)no5)(CC3)CC4)C(=O)C34CC(F)(C3)C4)c2)o1 [Example 7, N-((4-(3-cyclopropyl-1,2,4-oxadiazol-5-yl)bicyclo[2.2.2]octan-1-yl)methyl)-N-(3-(2-ethoxyoxazol-5-yl)phenyl)-3-fluorobicyclo[1.1.1]pentane-1-carboxamide] | 22 nM |
| O=C(C1CC(F)(F)C1)N(CC12CCC(c3nc(C4CC4)no3)(CC1)CC2)c1cccc(-c2cnc(C3CCOCC3)o2)c1 [Example 36, N-((4-(3-cyclopropyl-1,2,4-oxadiazol-5-yl)bicyclo[2.2.2]octan-1-yl)methyl)-3,3-difluoro-N-(3-(2-(tetrahydro-2H-pyran-4-yl)oxazol-5-yl)phenyl)cyclobutane-1-carboxamide] | 497 nM |
